According to patent US10890586B2, “Methods and kits for assaying endoglycosidase activity” (Bio-Techne Corporation, priority 2016, dated 2021):

T1: HPSE (Homo sapiens, UniProt Q9Y251)
T1 construct: purchased Bio-Techne
T1 sequence (Q9Y251 158-543 limits assumed): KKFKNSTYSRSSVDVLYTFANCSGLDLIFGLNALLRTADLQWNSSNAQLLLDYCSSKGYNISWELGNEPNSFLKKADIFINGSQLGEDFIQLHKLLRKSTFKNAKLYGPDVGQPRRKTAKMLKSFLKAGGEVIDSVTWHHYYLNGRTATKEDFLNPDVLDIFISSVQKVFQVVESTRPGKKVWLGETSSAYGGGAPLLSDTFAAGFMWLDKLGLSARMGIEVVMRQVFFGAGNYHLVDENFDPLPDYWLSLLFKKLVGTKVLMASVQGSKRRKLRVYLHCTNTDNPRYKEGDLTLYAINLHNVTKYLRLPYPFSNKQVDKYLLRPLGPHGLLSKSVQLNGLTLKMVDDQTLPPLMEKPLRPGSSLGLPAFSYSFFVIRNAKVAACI
T1 sequence (Q9Y251 36-109 limits assumed): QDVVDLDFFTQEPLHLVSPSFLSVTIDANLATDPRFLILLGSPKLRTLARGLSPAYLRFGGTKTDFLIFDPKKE

B1: labeled rhSynd4: recombinant human Syndecan-4 with HS non-reducing ends labeled with GlcNAz and biotin by click chemistry (protein, UniProt P31431 19-198, looked up)
Syndecan-4: ESIRETEVIDPQDLLEGRYFSGALPDDEDVVGPGQESDDFELSGSGDLDDLEDSMIGPEVVHPLVPLDNHIPERAGSGSQVPTEPKKLEENEVIPKRISPVEESEDVSNKVSMSSTVQGSNIFERTEVLAALIVGGIVGILFAVFLILLLMYRMKKKDEGSYDLGKKPIYKKAPTNEFYA
modifications: HS ends labeled GlcNAz and biotin
notes: recombinant human Syndecan-4 with HS non-reducing ends labeled with GlcNAz and biotin by click chemistry

Columns and labels:
HPSE = target: T1, HPSE; test: HPSE inhibitor study (ELISA-based HPSE activity assay with labeled rhSynd4); type: biochemical; details: 10 ng HPSE, 50 mM NaAc pH 4.0, 37° C. for two hours, OD 450
Method: In order to prepare the sample for the assay, the goat anti-human Syndecan-4 capture antibody was diluted to a working concentration in PBS without carrier protein. A 96-well microplate was immediately coated with 100 μL per well of the diluted capture antibody. The plate was sealed and incubated overnight at room temperature. Each well was subsequently aspirated and washed with wash buffer, repeating the process two times for a total of three washes. The wash buffer is 25 mM Tris (pH 7.6), 137 mM NaCl, and 0.01% Tween (TBST). Each well was washed by filling each well with 400 μL of wash buffer using a squirt bottle, manifold dispenser, or autowasher. After the last wash, any remaining wash buffer was removed by aspirating or by inverting the plate and blotting it against clean paper towels. The microplate was then blocked by adding 300 μL of reagent diluent to each well and incubating the microplate for a minimum of 1 hour. The microplate was then aspirated/washed as described above for a total of three washes, and the microplate was thus ready for sample addition.
To perform the ELISA assay, 100 μL of the HPSE treated mixture diluted with 1% BSA in PBS buffer were added per well. The HPSE treated mixture was diluted such that the concentration of rhSynd4 was 25 ng/ml. […]
The absorbance (OD 450) for each of the three compounds was determined using a microplate reader set to 450 nm. […]

[1] = target: goat anti-human lumican capture antibody; test: ELISA detection of KS non-reducing end labeled recombinant lumican; type: binding; details: 0-100 ng labeled lumican, 80 ng/well capture antibody, OD 450
Method: This study confirmed that the endoglycosidase activity assay of this disclosure is applicable to other endoglycosidases in addition to HPSE. An ELISA assay was first used to detect labeled recombinant lumican. The non-reducing ends of KS chains on recombinant human lumican were labeled through in vitro incorporation of GlcNAz by B3GNT2 (a KS specific GlcNAc transferase) according to the procedure described in Example 2 above. Increasing amounts of the labeled lumican (0-100 ng) were subsequently immobilized on a 96-well plate coated with 80 ng/well of goat anti-human lumican capture antibody. A DuoSet ELISA kit of Human Lumican was used to perform an ELISA assay similarly to the procedure described in Example 4 above. The absorbance (OD 450) of each well was determined using a microplate reader set to 450 nm. FIG. 8 is a graph of the OD 450 of increasing amounts of labeled lumican. The data was fit to the equation y=Cx/(Kd+x) to obtain curve 802, where Kd is the ligand-receptor binding affinity (dissociation constant for lumican bound to the capture antibody).

[2] = target: goat anti-human Syndecan-4 capture antibody; test: ELISA detection of HS non-reducing end labeled rhSynd4; type: binding; details: 0-50 ng labeled rhSynd4, 80 ng/well capture antibody, OD 450, fit y=Cx/(Kd+x)
Method: In order to establish a high throughput compatible method for HS detection, an ELISA assay was used to attempt to detect labeled rhSynd4. The non-reducing ends of HS chains on rhSynd4 were labeled according to Example 2 above. Increasing amounts of the labeled rhSynd4 (0-50 ng) were subsequently immobilized on a 96-well plate coated with 80 ng/well of goat anti-human Syndecan-4 capture antibody. The Syndecan-4 DuoSet kit was used to perform an ELISA assay (described in detail in Example 4 below). The absorbance (OD 450) of each well was determined using a microplate reader set to 450 nanometers (nm).
FIG. 4 is a graph of the OD 450 of increasing amounts of labeled rhSynd4. The data was fit to the equation y=Cx/(Kd+x) to obtain curve 402, where Kd is the ligand-receptor binding affinity (dissociation constant for rhSynd4 bound to the capture antibody).

| Molecule | EC50 (HPSE) [µg/mL] | further results |
| --- | --- | --- |
| chondroitin sulfate | 0.39 | – |
| heparin | 0.12 | – |
| labeled lumican: recombinant human lumican with KS non-reducing ends labeled with GlcNAz by B3GNT2 | – | Kd (dissociation constant for lumican bound to the capture antibody) [1]: 7.58 ng |
| B1 | – | Kd (dissociation constant for rhSynd4 bound to the capture antibody) [2]: 3.4 ng |
